No end group written: not given here.

The test system of one assay is SCF-reporter construct. Briefly: ER-to-Golgi transport of SCF-reporter construct (Golgi-staining of cells). It is filed as cell-based. The settings on record: 2-hours pretreatment and 1-hour ER-to Golgi transport; FIG. 4.
A further assay deals with SCF. Kind of assay: SCF transport to the cell surface (SCF staining). The settings on record: 100 μM peptide, 16 hours; FIG. 5. It is filed as cell-based. As for the experimental part: FIG. 5: Arginine-ester peptide delivery and inhibition of SCF transport to the cell surface (16 hours). Left: No peptide; normal SCF membrane staining.
Cos-7 cells were plated overnight on glass coverslips in 10% serum containing DMEM. For the analysis, we suspended the peptide at 1 mM in PBS (phosphate buffered saline) which was diluted to final concentration in full medium. We washed the cells after 15 or 30 minutes and washed once with PBS and fixed with paraformaldehyed (4%) for 10 minutes and took images in PBS.

As for “Arginine-ester peptide: 20-mer SCF peptide (SEQ ID NO: 1) with glutamate carboxylates esterified with a guanidinium alkanol (NEEDNEISMLQEKEREFQEV; also: glutamate carboxylates esterified with a guanidinium alkanol (places and alkanol not given here); listed as Homo sapiens)”, in the assay with SCF-reporter construct, the “% of cells exhibiting Golgi-staining of reporter construct (export of SCF-reporter construct)” value is “block export of a SCF-reporter construct”. Besides, the “inhibition of SCF transport to the cell surface (SCF staining)” value with SCF was “shift to intracellular SCF staining”.

(Values after US9211340B2, “Means and methods of enhancing delivery to biological systems” (priority 2006, dated 2015).)
